Measurements: PubChem BioAssay (NCI)
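96-well plates; 48 h exposure; 5 concentrations. Endpoints by linear interpolation between flanking doses. Not reached: highest tested concentration assigned. TGI marks complete inhibition of growth.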

Tests used:
Assay in all cases: DTP human tumour cell line panel, 48 h
IGROV1 ovarian = system: IGROV1 ovarian
UACC-62 melanoma = system: UACC-62 melanoma
MOLT-4 leukemia = system: MOLT-4 leukemia
K-562 leukemia = system: K-562 leukemia
M14 melanoma = system: M14 melanoma
NCI-H522 lung = system: NCI-H522 lung
SN12C renal = system: SN12C renal
OVCAR-4 ovarian = system: OVCAR-4 ovarian
PC-3 prostate = system: PC-3 prostate
ACHN renal = system: ACHN renal
MCF7 breast = system: MCF7 breast

| Structure (SMILES) | TGI (IGROV1 ovarian) [µM] | TGI (UACC-62 melanoma) [µM] | TGI (MOLT-4 leukemia) [µM] | TGI (K-562 leukemia) [µM] | TGI (M14 melanoma) [µM] | TGI (NCI-H522 lung) [µM] | TGI (SN12C renal) [µM] | TGI (OVCAR-4 ovarian) [µM] | TGI (PC-3 prostate) [µM] | TGI (ACHN renal) [µM] | TGI (MCF7 breast) [µM] |
| --- | --- | --- | --- | --- | --- | --- | --- | --- | --- | --- | --- |
| O=C(O)c1ccc([C@@H]2C(=O)N(O)[C@@H]3C=CC[C@@H]32)cc1 | > 100 | > 100 | > 100 | > 100 | > 100 | > 100 | > 100 |  |  |  |  |
| O=C(NCCCN(CCCCN(CCCNC(=O)c1cc(S(=O)(=O)O)cc(O)c1O)C(=O)c1cc(S(=O)(=O)O)cc(O)c1O)C(=O)c1cc(S(=O)(=O)O)cc(O)c1O)c1cc(S(=O)(=O)O)cc(O)c1O | > 100 | > 100 |  | > 100 |  | > 100 | > 100 | > 100 | > 100 | > 100 |  |
| NC(CCCCNCc1ccccc1)C(=O)O (stereo not drawn) | > 100 | > 100 | > 100 | > 100 | > 100 | > 100 | > 100 | > 100 |  | > 100 |  |
| CC(=O)NNc1nc(C)c(C(=O)/C=C/c2ccc(Cl)c(Cl)c2)s1 | > 100 | > 100 | > 100 | > 100 |  | > 100 | > 100 |  |  | > 100 |  |
| Cc1cc(C)nc(NS(=O)(=O)c2ccc(NC(=O)NC(F)(F)F)cc2)n1 | > 100 |  | > 100 | > 100 | > 100 |  | > 100 |  | > 100 | > 100 |  |
| CC(C)C(Sc1nc(-c2ccccc2)c(-c2ccccc2)[nH]1)c1n[nH]c(=S)n1-c1ccccc1 (stereo not drawn) | 69.2 | 25.3 | 47.5 |  | 38.2 | 43.6 | > 100 | > 100 |  | 79.5 |  |
| COc1ccc(/C=C/C(=O)c2sc(-c3cccnc3)nc2C)cc1 | > 100 | > 100 | 99.5 | > 100 |  | > 100 | > 100 |  |  |  |  |
| COc1ccccc1NC(=O)CC(=O)N1N=C(c2ccccc2)C(N=Nc2ccc(Cl)cc2)C1=O (stereo not drawn) | > 100 | 89.7 | > 100 | > 100 | > 100 | > 100 | > 100 | 56.6 |  | 47.3 |  |
| Cc1nc2c3c(ccc2[nH]c1=O)C(=O)c1ccccc1C3=O | > 100 | > 100 |  | > 100 | > 100 | > 100 | > 100 | > 100 |  | > 100 |  |
| COc1ccc(/C=C2\CCC(CCN3CCOCC3)C2=O)cc1 (stereo not drawn) | > 100 | > 100 | > 100 | > 100 | > 100 |  | > 100 | > 100 |  | > 100 |  |
| Cc1ccsc1C(=S)Nc1ccc(Cl)c(/C=N/OC(C)C)c1 | > 100 | > 100 | 35.2 |  | > 100 | > 100 | > 100 | 98.9 | > 100 | > 100 | 62.6 |
| COc1ccc2c(c1)[n+]([O-])c(/C(C)=N/NC(=O)c1ccccc1O)c(C)[n+]2[O-] | > 100 | > 100 | > 100 | > 100 | > 100 | > 100 | > 100 | > 100 |  | > 100 |  |
| NC(N)=NS(=O)(=O)c1ccc(NC(=O)c2cccc3c(N)c4ccccc4nc23)cc1 | > 100 | > 100 | > 100 | > 100 | > 100 | > 100 | > 100 | > 100 |  | > 100 |  |
| O=c1[nH]c(=O)n(CCOc2ccc(Cl)cc2)cc1Nc1ccccc1 | > 100 | > 100 | > 100 | > 100 | > 100 |  | > 100 | > 100 | > 100 | > 100 | > 100 |
| CCOc1cccc(-c2cc(=O)c3cc4c(cc3[nH]2)OCO4)c1 | > 100 | 21.1 | > 100 |  | > 37.6 | 0.684 | 5.38 | > 100 | > 100 | > 62.3 | > 100 |
| CN(C)CC1CCC/C(=C\c2ccccc2)C1=O (stereo not drawn) | 13.9 | 20.2 | > 100 |  |  | 2.95 | 18.5 | 3.17 | 21 | 12.6 | 2.18 |
| CC(C)c1ccc(/C=C/c2cc(C(=O)NNC(=O)NC3CCCCC3)nc(=S)[nH]2)cc1 | > 100 | > 100 |  |  | > 100 | > 100 | > 100 | > 100 |  | > 100 |  |
| O=C(Cc1nc2ccc([N+](=O)[O-])cc2[nH]c1=O)C(=O)Nc1ccccc1[N+](=O)[O-] | > 100 | > 100 | > 100 | > 100 | > 100 | > 100 |  | > 100 |  | > 100 |  |

| Structure (SMILES) | TGI (IGROV1 ovarian) [µM] | TGI (UACC-62 melanoma) [µM] | TGI (MOLT-4 leukemia) [µM] | TGI (K-562 leukemia) [µM] | TGI (M14 melanoma) [µM] | TGI (NCI-H522 lung) [µM] | TGI (SN12C renal) [µM] | TGI (OVCAR-4 ovarian) [µM] | TGI (PC-3 prostate) [µM] | TGI (ACHN renal) [µM] | TGI (MCF7 breast) [µM] |
| --- | --- | --- | --- | --- | --- | --- | --- | --- | --- | --- | --- |
| C#CCOCn1cc(C)c(=O)[nH]c1=O | > 100 | > 100 | > 100 | > 100 | > 100 |  | > 100 |  | > 100 | > 100 | > 100 |
| O=C(CC1(O)C(=O)Nc2c(Cl)cc(Cl)cc21)c1ccc(F)cc1 (stereo not drawn) | 67.6 | > 100 |  |  | > 100 |  | > 100 | 52.6 |  | > 100 |  |
| COC(=O)[C@]12CSC[C@H]1C[C@H](c1cccc3ccccc13)N2 | > 100 | > 100 | 61.4 | > 100 | > 100 |  | > 100 |  | > 100 | > 100 | > 100 |
| CCCCC1(O)CC2CC1C(C)C2(C)C (stereo not drawn) | > 100 | > 100 | > 100 | > 100 | > 100 |  | > 100 | > 100 | > 100 |  | > 100 |
| CCCCCCCCCCCCC(Br)C(C)=O (stereo not drawn) | > 100 | > 100 |  |  | > 100 | > 100 | > 100 | > 100 |  | > 100 |  |
| COc1cc(CNc2cnc3ccc(N)cc3n2)cc(OC)c1OC | > 100 | > 100 | > 100 | > 100 | > 100 | > 100 | > 100 | > 100 |  | > 100 |  |
| CN(C)C(=NC#N)N(Cc1ccccc1)Cc1ccccc1 | > 100 | > 100 |  | 50.9 | > 100 | 81.5 | > 100 | > 100 |  | > 100 |  |
| O=C(O)CCN(CCCN(CCC(=O)O)CCC(=O)O)CCC(=O)O | > 100 | > 100 | > 100 | > 100 | > 100 | > 100 | > 100 | > 100 |  | > 100 |  |
| Cc1ccc(C(=O)Oc2ccc(/C=C3\CCC/C(=C\c4ccc(OC(=O)c5ccc(C)cc5)cc4)C3=O)cc2)cc1 | > 100 | > 100 | > 100 |  | > 100 | > 100 | > 100 | > 100 | > 100 | > 100 | > 100 |
| CCOC(=O)C1SC(=Nc2ccc(Cl)cc2Cl)N=C1C (stereo not drawn) | > 100 | > 100 |  | > 100 | > 100 | > 100 | > 100 | 70.1 |  | > 100 |  |
| NC(=O)Cn1c(=O)oc2cc(C(=O)CN3CCOCC3)ccc21 | > 100 |  | > 100 | > 100 | > 100 |  | > 100 |  | > 100 |  | > 100 |
| Cc1ccccc1Nc1nc(NNC(=O)Cc2ccccc2)nc(NNC(=O)c2ccncc2)n1 | > 10 | > 10 | > 10 | > 10 | > 10 |  | > 10 | > 10 |  |  | > 10 |
| CCOC(=O)C(NC(=O)CC)(Nc1ccc(F)cc1F)C(F)(F)F (stereo not drawn) | > 100 |  | > 100 | > 100 | > 100 |  | > 100 |  | > 100 | > 100 |  |
| Cc1cc2c(cc1Cl)SC(NNC1=NCCN1)=NS2(=O)=O | > 10 | > 10 | > 10 | > 10 | > 10 | > 10 | > 10 | > 10 | > 10 | > 10 |  |
| CC(C)OP(=O)(OC(C)C)C(=NCCN=C(NNc1ccccc1[N+](=O)[O-])P(=O)(OC(C)C)OC(C)C)NNc1ccccc1[N+](=O)[O-] | 82.7 | 40.6 | > 100 | > 100 | > 100 | > 100 | > 100 | > 100 |  | > 100 |  |
| COC(=O)Cn1c(=O)oc2nc(-c3ccccc3)cc(C(F)(F)F)c21 | > 100 | > 100 | 71.3 |  | > 100 | > 100 | > 100 | > 100 | > 100 | > 100 | > 100 |
| COC(=O)C(c1ccc(OC)cc1)N1C(=O)[C@@H](NC(=O)c2ccccc2)[C@H]1[C@@H](C)O (stereo partly drawn) | > 100 | > 100 | > 100 | > 100 | > 100 | > 100 | > 100 | > 100 |  | > 100 |  |
